In US20040033213A1, “Methods of modulating dendritic cells using adjuvants” (Corixa Corporation, priority 2002, published 2004):

Assays:
Format in all cases: cell-based
[1] = system: Human d7 Cultured Dendritic Cells; test: Flow cytometry phenotype analysis of human d7 cultured dendritic cells after 24 h stimulation; settings: for HLA-DR MFI: 7 day DCs, 24 h stimulation
[2] = system: 6-7 day cultured human dendritic cells; test: ELISA of cytokines (IL-12 p40, IL-12 p70, TNF-α) in 22 h induction supernatants of cultured human dendritic cells; settings: for IL-12 p40 / IL-12 p70 / TNF-α: 22 Hrs
Text: Recent articles have described how human dendritic cells can be derived in vitro from CD14 positive monocyte precursors in peripheral blood. A “buffy coat” preparation can now be commonly obtained from a unit of normal human peripheral blood from a blood bank on request. The leukocyte fraction was harvested from this buffy coat preparation using standard ficoll centrifugation techniques. Subsequently, the leukocyte fraction was labeled with anti-CD 14 antibody coupled to magnetic microbeads. This preparation was then passed over a magnet (Miltanyi Biotech) and CD14 positive monocytes were collected. These CD14 positive monocyte precursors were then cultured for 5-7 days in vitro (5×10^5 cells/ml) with GM-CSF (20 ng/ml) for the duration of the culture. […] After the 24 hour in vitro stimulation culture, cells were washed twice and stained with a panel of monoclonal antibodies specific for different cell surface activation and co-receptor molecules found on mature, activated DCs.
Supernatants from DCs stimulated with LPS, MPL® immunostimulant-S, RC-527, RC-529, and RC-544 were collected and tested by ELISA analysis for cytokines.

[3] = system: murine bone marrow derived DCs + D011.10 T cells; test: APC function of ova-pulsed, lipid A potentiated murine DCs co-cultured with D011.10 T cells (cytokine ELISA)
Text: These antigen pulsed, lipid A potentiated cells were then washed thoroughly and titered against ova-specific T cell effector cells in vitro at an APC: T cell ratio titration of 1:1 out to as high as 1:512. The effector T cells in this in vitro assay were the antigen naive, but antigen (ova) specific, MHC restricted I-A^d splenic T cells from transgenic D011.10 mice.
D011.10 TCR-transgenic mice were used in these experiments as donors of antigen specific naive T cells. In their germline DNA these mice contain rearranged TCR-Vα and -Vβ genes that encode a T cell receptor (TCR) specific for the ovalbumin peptide 323-339 bound to IA^d (Balb/c) Class II MHC molecules. The transgenic ova peptide specific TCR can be detected with the KJ1-26 monoclonal antibody (mAb) that binds only to this particular TCR heterodimer. These cells provide a ready source of “normal” antigen (ova)-specific effector T cells. Effective antigen-mediated APC stimulation of those T cells is generally measured by ELISA quantitation of IL-2 or IFN-γ in the culture supernatants of DC+D011.10 T cells after 24-48 hours of incubation.
In one experiment, murine bone marrow derived DCs (6 day cultures) were pulsed with ova (50 μg/ml-5×10^5 cells/ml) and then potentiated overnight with LPS(R595), MPL® immunostimulant-S, RC-527, RC-529 or RC-544 prior to being cultured together with naive D011.10 effector T cells (FIGS. 1-7). The APC function of these DCs as measured by their ability to stimulate IL-2, IFN-γ IL-12 (p70) and IL-12 (p40) secretion in the DC+D011.10 co-culture systems was analyzed. All of the data shown in FIGS. 1-7 was developed from DCs maintained in lipid A induction cultures for either 15 or 38 hours prior to use in the T cell assay.

[4] = system: cultured human DCs + autologous T cells
[5] = Exp. 091698, 24 h, LPS 10 ng/ml, others 100 ng/ml
[6] = Exp. 092398, 24 h, LPS 10 ng/ml, others 100 ng/ml
[7] = Exp. 093098, 24 h, LPS 10 ng/ml, others 100 ng/ml
[8] = Exp. # 092398, Day 7, LPS 10 ng/ml, others 100 ng/ml
[9] = Exp. # 093098, LPS 10 ng/ml, others 100 ng/ml

## CCCCCCCCCCCC(=O)OC(CCCCCCCCCCC)CC(=O)NC(CO)COC1OC(CO)C(OP(=O)(O)O)C(OC(=O)CC(CCCCCCCCCCC)OC(=O)CCCCCCCCCCC)C1NC(=O)CC(CCCCCCCCCCC)OC(=O)CCCCCCCCCCC (centres unmarked) [RC-544]
[1]; [5]
  CD 1a % positive cells: 11.6%
  CD 1a MFI: 7.38
  CD 4 % positive cells: 70.6%
  CD 4 MFI: 2.17
  CD 14 % positive cells: 7.6%
  CD 35 % positive cells: 52.5%
  CD 35 MFI: 2.85
  CD 40 MFI: 31.8
  CD 44 MFI: 242
  CD 54 MFI: 26.1
  CD 62 L % positive cells: 11.6%
  CD 69 % positive cells: 10.8%
  CD 80 % positive cells: 99.2%
  CD 80 MFI: 5.99
  CD 83 % positive cells: 94.3%
  CD 83 MFI: 2.72
  CD 86 % positive cells: 99.7%
  CD 86 MFI: 15.3
  CD 95 % positive cells: 86.0%
  CD 95 MFI: 1.31
[1]; Exp. 091698, LPS 10 ng/ml, others 100 ng/ml
  HLA-DR MFI: 544-S 60.8
[1]; [6]
  CD 1a % positive cells: 75.6%
  CD 1a MFI: 4.44
  CD 4 % positive cells: 75.7%
  CD 4 MFI: 2.80
  CD 14 % positive cells: 5.0%
  CD 35 % positive cells: 59.1%
  CD 35 MFI: 2.98
  CD 40 MFI: 33.7
  CD 54 MFI: 32.7
  CD 62 L % positive cells: 7.1%
  CD 69 % positive cells: 10.1%
  CD 80 % positive cells: 99.1%
  CD 80 MFI: 7.56
  CD 83 % positive cells: 97.1%
  CD 83 MFI: 3.52
  CD 86 % positive cells: 99.9%
  CD 86 MFI: 26.4
  CD 95 % positive cells: 90.6%
  CD 95 MFI: 1.40
  αC5aR + GAR Alexa % positive cells: 45.9%
[1]; Exp. 092398, 24 h, LPS 10 ng/ml, others 100 ng/ml, values printed with a trailing +
  CD 44 MFI: 426+
[1]; Exp. 092398, 24 h, secondary reagent staining, LPS 10 ng/ml, others 100 ng/ml
  GAR-Alexa % positive cells: 3.9%
[1]; Exp. 092398, LPS 10 ng/ml, others 100 ng/ml
  HLA-DR MFI: 155.2
[1]; [7]
  CCR 6 % positive cells: 5.8%
  CD 1a % positive cells: 78.1%
  CD 1a MFI: 6.06
  CD 3 % positive cells: 26.8%
  CD 3 MFI: 3.86
  CD 4 % positive cells: 79.4%
  CD 4 MFI: 3.11
  CD 11c % positive cells: 91.0%
  CD 11c MFI: 6.23
  CD 14 % positive cells: 4.1%
  CD 40 MFI: 30.4
  CD 54 MFI: 36.8
  CD 62 L % positive cells: 4.0%
  CD 80 % positive cells: 99.0%
  CD 80 MFI: 10.9
  CD 83 % positive cells: 92.5%
  CD 83 MFI: 3.43
  CD 86 % positive cells: 99.8%
  CD 86 MFI: 26.3
  CD 123 % positive cells: 48.0%
  CD 123 MFI: 1.85
  αC5aR + Alexa 488 % positive cells: 43.3%
  αC5aR + Alexa 488 MFI: 9.41
[1]; Exp. 093098, LPS 10 ng/ml, others 100 ng/ml
  HLA-DR MFI: 134.3
[1]; RC-529 compared with RC-544, three experiments
  stimulating the expression of HLA-DR and co-stimulatory molecules (in words): very comparable effects
[1]; RC-544 compared with RC-529
  CD40 and CD83 expression (in words): slightly higher levels of CD40 and CD83 expression than did RC-529
[2]; Exp. # 091698, LPS 10 ng/ml, others 100 ng/ml
  IL-12 p40: 42,500 pg/mL/5 × 10^5 Cells
[2]; Exp. # 092398 (second line, Day7), LPS 10 ng/ml, others 100 ng/ml
  IL-12 p70: 175.2 pg/ml/5 × 10^5 Cells
[2]; [8]
  IL-12 p40: 80,500 pg/mL/5 × 10^5 Cells
  TNF-α: 5.650 pg/mL/5 × 10^5 Cells
[2]; Exp. # 092398 as printed (first line of section), LPS 10 ng/ml, others 100 ng/ml
  IL-12 p70: 8.8 pg/ml/5 × 10^5 Cells
[2]; Exp. # 092398 as printed (third line of section), LPS 10 ng/ml, others 100 ng/ml
  IL-12 p70: 55.7 pg/ml/5 × 10^5 Cells
[2]; [9]
  IL-12 p40: 62,000 pg/mL/5 × 10^5 Cells
  TNF-α: 880 pg/mL/5 × 10^5 Cells
[2]; all three experiments, LPS 10 ng/ml, others 100 ng/ml
  IL-12 (p40) expression (in words): also stimulated IL-12 (p40) responses
[2]; the one donor in which LPS and MPL-S gave a significant amount
  IL-12 (p70) (in words): high levels of IL-12 (p70)
[2]; three donors
  TNF-α secretion (in words): moderately lower than the effect due to RC-527
[3]; DCs prestimulated 15 hours, all T cell:APC ratios, FIG. 1
  IL-2 secretion (in words): comparable in their ability to stimulate IL-2 secretion
[3]; FIG. 5
  IL-12 (p70) in DC+D011.10 co-cultures (in words): overall weaker in their effect than LPS and RC-527
[3]; FIG. 6
  IL-12 (p70) at T cell:APC ratio 16:1 (in words): substantially higher stimulation effect than that induced by RC-529
[3]; FIG. 7
  release of IL-12 (p40) homodimer in DC+D011.10 co-cultures (in words): weaker in their effect than LPS and RC-527
[4]
  T cell proliferation / DC activation, CPM 3H-thymidine response (in words): highest levels of DC activation compared to MPL® immunostimulant
